Data as given in patent US8822517B2, “Arylosulfonamides for the treatment of CNS diseases” (Adamed SP. Z O.O., priority 2010, dated 2014).

Assays:
[1] = target: T1, serotoninergic 5-HT7 receptor (Homo sapiens, UniProt P34969); assay: Binding assay 5-HT7 (h), [3H]LSD, CHO cells; parameters: expressed in transfected cells; host or cells: CHO cells; conditions: read-out: 5-HT7
In short: (§1)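 Radioligand displacement with compounds at 1×10^−6 M, detected by scintillation counting. Specific binding taken as total minus non-specific binding measured with excess unlabelled ligand.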

[2] = target: T2, serotonine transporter (SERT) receptor (Homo sapiens, UniProt P31645); assay: Binding assay SERT (h), [3H]imipramine, CHO cells; conditions: read-out: SERT [%]
T2 construct: expressed in transfected cells; host or cells: CHO cells
T2 sequence (P31645 whole entry): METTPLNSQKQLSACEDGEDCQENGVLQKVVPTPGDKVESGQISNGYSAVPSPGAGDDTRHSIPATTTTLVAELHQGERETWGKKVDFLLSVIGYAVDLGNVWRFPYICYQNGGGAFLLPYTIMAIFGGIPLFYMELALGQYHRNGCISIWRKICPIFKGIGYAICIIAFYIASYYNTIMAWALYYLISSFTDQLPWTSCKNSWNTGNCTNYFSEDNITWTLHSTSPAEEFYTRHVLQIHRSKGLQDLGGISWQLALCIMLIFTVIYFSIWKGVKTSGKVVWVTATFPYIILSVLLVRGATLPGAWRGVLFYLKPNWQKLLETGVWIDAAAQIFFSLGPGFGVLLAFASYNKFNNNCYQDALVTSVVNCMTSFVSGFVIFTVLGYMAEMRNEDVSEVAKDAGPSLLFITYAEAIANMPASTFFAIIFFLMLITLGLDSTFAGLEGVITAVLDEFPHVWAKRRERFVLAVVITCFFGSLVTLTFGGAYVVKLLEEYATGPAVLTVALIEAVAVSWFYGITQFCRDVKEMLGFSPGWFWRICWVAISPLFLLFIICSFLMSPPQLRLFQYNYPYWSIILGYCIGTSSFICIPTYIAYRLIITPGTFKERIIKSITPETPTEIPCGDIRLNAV
In short: as §1

adrenergic α1 receptor = assay: Binding assay α1 (non-selective), [3H]prazosin, rat cerebral cortex; conditions: percent inhibition of control specific binding; compounds tested at 1×10^−6 M
In short: as §1

[3] = target: T3, serotoninergic 5-HT6 receptor (Homo sapiens, UniProt P50406); assay: Binding assay 5-HT6 (h), [3H]LSD, CHO cells; parameters: expressed in transfected cells; host or cells: CHO cells; conditions: read-out: 5-HT6
T3 sequence (P50406 whole entry): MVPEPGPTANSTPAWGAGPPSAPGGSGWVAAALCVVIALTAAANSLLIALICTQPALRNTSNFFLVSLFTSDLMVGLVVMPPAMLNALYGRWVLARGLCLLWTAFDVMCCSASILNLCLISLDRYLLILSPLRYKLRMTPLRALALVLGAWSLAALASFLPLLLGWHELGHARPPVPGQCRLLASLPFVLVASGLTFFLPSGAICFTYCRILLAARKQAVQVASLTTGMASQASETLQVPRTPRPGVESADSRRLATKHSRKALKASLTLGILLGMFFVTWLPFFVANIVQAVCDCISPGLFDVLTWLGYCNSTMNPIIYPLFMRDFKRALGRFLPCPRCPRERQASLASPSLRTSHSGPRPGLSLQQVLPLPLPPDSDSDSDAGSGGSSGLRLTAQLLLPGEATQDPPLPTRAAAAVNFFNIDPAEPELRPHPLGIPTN
In short: as §1

[4] = target: T1, serotoninergic 5-HT7 receptor; assay: Cellular functional assay, serotoninergic 5-HT7 receptor (agonism/antagonism); assay type: cell-based; conditions: for activation at 1 µM: agonist effect, percent of control specific agonist response, compounds tested at 1×10^−6M, read-out: 5-HT7-ag [%]; for inhibition at 1 µM: read-out: 5-HT7-antag. [%]
Description: (§2) The compounds were tested at the concentration of 1×10^−6M.
(§3) In the Tables ag refers to agonism, and antag to antagonism).

dopaminergic D3 receptor = dopaminergic D3 receptor (Homo sapiens, UniProt P35462); assay: Binding assay D3 (h), [3H]methyl-spiperone, CHO cells; parameters: expressed in transfected cells; host or cells: CHO cells; conditions: read-out: D3 [%]
Sequence of dopaminergic D3 receptor (P35462 whole entry): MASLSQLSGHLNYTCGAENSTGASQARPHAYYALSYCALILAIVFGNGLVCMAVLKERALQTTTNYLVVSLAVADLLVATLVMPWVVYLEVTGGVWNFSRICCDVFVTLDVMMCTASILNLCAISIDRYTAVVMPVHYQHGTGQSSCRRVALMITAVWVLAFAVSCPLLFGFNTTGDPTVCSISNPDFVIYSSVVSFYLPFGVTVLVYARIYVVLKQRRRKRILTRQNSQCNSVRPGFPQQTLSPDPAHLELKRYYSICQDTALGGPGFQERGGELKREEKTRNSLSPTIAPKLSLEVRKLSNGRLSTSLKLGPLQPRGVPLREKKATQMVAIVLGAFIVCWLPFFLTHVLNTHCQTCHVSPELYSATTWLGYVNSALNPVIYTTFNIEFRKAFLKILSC
In short: as §1

muscarinic M3 receptor = target: T4, muscarinic M3 receptor (Homo sapiens, UniProt P20309); assay: Binding assay M3 (h), [3H]4-DAMP, CHO cells; conditions: read-out: M3 [%]
T4 construct: expressed in transfected cells; host or cells: CHO cells
T4 sequence (P20309 whole entry): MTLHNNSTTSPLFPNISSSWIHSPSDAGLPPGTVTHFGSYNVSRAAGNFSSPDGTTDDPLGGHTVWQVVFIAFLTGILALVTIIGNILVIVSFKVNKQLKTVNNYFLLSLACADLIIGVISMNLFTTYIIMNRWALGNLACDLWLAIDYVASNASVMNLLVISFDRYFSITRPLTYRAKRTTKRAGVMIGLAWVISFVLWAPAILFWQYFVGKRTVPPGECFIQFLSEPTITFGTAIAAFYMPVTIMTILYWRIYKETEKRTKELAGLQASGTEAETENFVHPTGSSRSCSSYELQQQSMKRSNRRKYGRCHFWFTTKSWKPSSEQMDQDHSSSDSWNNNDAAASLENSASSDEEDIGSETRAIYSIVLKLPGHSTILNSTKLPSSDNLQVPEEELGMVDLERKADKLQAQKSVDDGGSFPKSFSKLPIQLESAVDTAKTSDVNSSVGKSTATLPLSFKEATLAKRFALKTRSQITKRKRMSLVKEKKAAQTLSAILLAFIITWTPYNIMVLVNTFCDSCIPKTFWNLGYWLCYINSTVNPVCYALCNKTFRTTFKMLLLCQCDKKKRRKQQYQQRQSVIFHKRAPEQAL
In short: as §1

[5] = target: T5, serotoninergic receptor 5-HT2C (Homo sapiens, UniProt P28335); assay: Binding assay 5-HT2C (h), [3H]mesulergine, HEK-293 cells; conditions: read-out: 5-HT2C [%]
T5 construct: expressed in transfected cells; host or cells: HEK-293 cells
T5 sequence (P28335 33-458): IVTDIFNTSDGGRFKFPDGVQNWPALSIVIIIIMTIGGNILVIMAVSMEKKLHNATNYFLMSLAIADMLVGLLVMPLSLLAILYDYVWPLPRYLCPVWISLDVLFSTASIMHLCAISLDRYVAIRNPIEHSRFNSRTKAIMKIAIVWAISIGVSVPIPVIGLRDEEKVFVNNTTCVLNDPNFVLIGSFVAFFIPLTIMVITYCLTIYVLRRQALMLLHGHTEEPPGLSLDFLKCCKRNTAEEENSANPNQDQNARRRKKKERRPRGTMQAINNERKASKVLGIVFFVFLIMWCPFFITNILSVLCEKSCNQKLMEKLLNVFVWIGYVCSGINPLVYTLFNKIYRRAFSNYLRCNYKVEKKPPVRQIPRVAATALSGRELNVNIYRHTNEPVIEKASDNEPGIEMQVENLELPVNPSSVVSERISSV
In short: as §1

sigma σ receptor = assay: Binding assay σ (non-selective), [3H]DTG, rat cerebral cortex; conditions: percent inhibition of control specific binding; compounds tested at 1×10^−6 M
In short: as §1

[6] = target: T3, serotoninergic 5-HT6 receptor; assay: Cellular functional assay, serotoninergic 5-HT6 receptor (agonism/antagonism); assay type: cell-based; conditions: for activation at 1 µM: agonist effect, percent of control specific agonist response, compounds tested at 1×10^−6M, read-out: 5-HT6-ag [%]; for inhibition at 1 µM: read-out: 5-HT6-antag. [%]
Description: as §2, §3

[7] = target: T6, serotoninergic 5-HT1A receptor (Homo sapiens, UniProt P08908); assay: Binding assay 5-HT1A (h), [3H]8-OH-DPAT, HEK-293 cells; parameters: expressed in transfected cells; host or cells: HEK-293 cells; conditions: read-out: 5-HT1A
T6 sequence (P08908 1-422): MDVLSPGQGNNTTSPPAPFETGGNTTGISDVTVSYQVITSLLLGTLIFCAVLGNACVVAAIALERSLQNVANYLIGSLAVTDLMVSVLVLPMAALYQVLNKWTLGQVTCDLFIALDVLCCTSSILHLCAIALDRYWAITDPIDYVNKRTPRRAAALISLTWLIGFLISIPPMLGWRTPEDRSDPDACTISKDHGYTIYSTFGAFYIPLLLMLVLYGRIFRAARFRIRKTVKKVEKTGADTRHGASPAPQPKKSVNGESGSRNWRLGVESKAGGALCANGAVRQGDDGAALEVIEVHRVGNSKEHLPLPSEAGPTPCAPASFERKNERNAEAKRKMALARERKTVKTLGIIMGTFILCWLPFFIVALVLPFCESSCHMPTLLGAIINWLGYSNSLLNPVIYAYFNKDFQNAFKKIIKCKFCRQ
In short: as §1

[8] = target: serotoninergic 5-HT2A receptor (Homo sapiens, UniProt P28223); assay: Binding assay 5-HT2A (h), [3H]ketanserin, HEK-293 cells; parameters: expressed in transfected cells; host or cells: HEK-293 cells; conditions: read-out: 5-HT2A
Sequence of serotoninergic 5-HT2A receptor (P28223 whole entry): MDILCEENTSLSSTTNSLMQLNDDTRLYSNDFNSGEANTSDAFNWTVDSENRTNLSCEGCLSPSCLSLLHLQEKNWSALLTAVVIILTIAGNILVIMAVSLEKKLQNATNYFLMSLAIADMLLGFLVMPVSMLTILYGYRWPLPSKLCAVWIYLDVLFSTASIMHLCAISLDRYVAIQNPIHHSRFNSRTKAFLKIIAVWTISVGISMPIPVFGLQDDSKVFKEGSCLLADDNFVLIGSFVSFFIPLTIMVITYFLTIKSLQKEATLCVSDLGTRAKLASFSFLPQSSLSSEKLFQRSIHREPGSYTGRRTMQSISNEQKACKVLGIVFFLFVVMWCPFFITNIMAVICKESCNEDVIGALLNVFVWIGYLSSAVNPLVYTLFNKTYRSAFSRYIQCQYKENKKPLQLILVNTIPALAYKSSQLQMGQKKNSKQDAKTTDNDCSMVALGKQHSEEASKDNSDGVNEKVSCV
In short: as §1

dopaminergic D2 receptor = dopaminergic D2 receptor (Homo sapiens, UniProt P14416); assay: Binding assay D2S (h), [3H]methyl-spiperone, HEK-293 cells; parameters: expressed in transfected cells; host or cells: HEK-293 cells; conditions: read-out: D2 [%]
Sequence of dopaminergic D2 receptor (P14416 1-414 isoform P14416-2): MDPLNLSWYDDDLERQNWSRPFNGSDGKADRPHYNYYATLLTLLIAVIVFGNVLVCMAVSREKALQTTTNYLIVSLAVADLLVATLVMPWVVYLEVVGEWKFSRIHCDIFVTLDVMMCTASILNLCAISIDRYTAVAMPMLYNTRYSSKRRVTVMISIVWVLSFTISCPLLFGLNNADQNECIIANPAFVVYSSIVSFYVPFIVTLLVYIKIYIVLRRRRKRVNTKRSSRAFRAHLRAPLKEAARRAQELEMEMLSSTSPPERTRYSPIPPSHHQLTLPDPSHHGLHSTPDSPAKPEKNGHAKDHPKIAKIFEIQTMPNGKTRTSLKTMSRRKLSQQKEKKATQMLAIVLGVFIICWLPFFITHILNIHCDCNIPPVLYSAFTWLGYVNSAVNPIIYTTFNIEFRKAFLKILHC
In short: as §1

adrenergic α2C receptor = target: T7, adrenergic α2C receptor (Homo sapiens, UniProt P18825); assay: Binding assay α2C (h), [3H]RX 821002, CHO cells; parameters: expressed in transfected cells; host or cells: CHO cells; conditions: read-out: α2C [%]
T7 sequence (P18825 1-462): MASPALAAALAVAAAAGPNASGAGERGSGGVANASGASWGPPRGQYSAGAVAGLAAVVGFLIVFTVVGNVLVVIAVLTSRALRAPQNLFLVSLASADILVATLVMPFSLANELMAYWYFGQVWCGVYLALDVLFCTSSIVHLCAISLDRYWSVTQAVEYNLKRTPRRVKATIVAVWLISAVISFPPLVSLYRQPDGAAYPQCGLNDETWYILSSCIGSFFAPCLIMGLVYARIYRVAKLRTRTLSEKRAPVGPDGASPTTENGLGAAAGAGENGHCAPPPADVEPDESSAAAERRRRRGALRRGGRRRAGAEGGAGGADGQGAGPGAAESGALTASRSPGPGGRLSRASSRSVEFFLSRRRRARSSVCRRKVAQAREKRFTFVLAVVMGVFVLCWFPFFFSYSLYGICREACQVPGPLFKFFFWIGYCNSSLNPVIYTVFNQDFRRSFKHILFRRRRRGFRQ
In short: as §1

[9] = target: histaminergic H1 receptor (Homo sapiens, UniProt P35367); assay: Binding assay H1 (h), [3H]pyrilamine, HEK-293 cells; parameters: expressed in transfected cells; host or cells: HEK-293 cells; conditions: read-out: H1 [%]
Sequence of histaminergic H1 receptor (P35367 whole entry): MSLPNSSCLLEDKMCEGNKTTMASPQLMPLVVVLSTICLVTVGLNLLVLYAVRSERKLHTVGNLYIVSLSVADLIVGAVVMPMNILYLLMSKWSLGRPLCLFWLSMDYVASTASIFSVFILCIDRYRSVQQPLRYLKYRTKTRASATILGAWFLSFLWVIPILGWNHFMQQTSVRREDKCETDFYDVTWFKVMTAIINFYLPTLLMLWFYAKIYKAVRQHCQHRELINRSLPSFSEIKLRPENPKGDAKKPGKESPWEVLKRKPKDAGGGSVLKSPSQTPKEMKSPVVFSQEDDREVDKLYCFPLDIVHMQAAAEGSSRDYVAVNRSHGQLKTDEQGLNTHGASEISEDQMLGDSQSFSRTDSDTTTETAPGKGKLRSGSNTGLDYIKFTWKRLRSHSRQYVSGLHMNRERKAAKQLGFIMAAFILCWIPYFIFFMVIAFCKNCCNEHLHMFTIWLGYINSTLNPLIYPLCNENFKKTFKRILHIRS
In short: as §1

T1 sequence (P34969 whole entry): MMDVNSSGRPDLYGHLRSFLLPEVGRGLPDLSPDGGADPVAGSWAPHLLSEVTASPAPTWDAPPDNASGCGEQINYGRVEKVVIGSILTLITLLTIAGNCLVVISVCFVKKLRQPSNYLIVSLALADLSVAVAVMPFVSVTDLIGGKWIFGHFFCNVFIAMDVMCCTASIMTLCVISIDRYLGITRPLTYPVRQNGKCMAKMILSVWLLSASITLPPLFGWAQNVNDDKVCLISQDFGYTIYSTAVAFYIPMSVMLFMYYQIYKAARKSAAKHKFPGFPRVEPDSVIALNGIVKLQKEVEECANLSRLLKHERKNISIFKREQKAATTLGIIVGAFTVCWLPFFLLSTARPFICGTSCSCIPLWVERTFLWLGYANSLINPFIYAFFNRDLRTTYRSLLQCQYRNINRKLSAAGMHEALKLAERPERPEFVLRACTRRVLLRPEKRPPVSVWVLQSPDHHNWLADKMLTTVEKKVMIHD

O=c1[nH]c2ccc(S(=O)(=O)NCCCCN3CCN(c4nsc5ccccc45)CC3)cc2o1 [Compound 4, N-(4-(4-(1,2-Benzothiazol-3-yl)piperazin-1-yl)butyl)-2-oxo-3H-1,3-benzoxazole-6-sulphonamide]
inhibition at 1 µM [1]: 97% | inhibition at 1 µM [2]: 26% | α1 [%] (adrenergic α1 receptor): 96% | inhibition at 1 µM [3]: 87% | activation at 1 µM [4]: -1% | inhibition at 1 µM [4]: 81% | inhibition at 1 µM (dopaminergic D3 receptor): 98% | inhibition at 1 µM (muscarinic M3 receptor): 3% | inhibition at 1 µM [5]: 91% | σ [%] (sigma σ receptor): 1% | activation at 1 µM [6]: -1% | inhibition at 1 µM [6]: 37% | inhibition at 1 µM [7]: 99% | inhibition at 1 µM [8]: 99% | inhibition at 1 µM (dopaminergic D2 receptor): 96% | inhibition at 1 µM (adrenergic α2C receptor): 96% | inhibition at 1 µM [9]: 100%

O=S(=O)(NCCN1CCN(c2nsc3ccccc23)CC1)c1cccc2ccccc12 [Compound 9, N-(2-(4-(1,2-Benzothiazol-3-yl)piperazin-1-yl)ethyl)naphthalene-1-sulphonamide]
inhibition at 1 µM [1]: 98% | inhibition at 1 µM [2]: 29% | α1 [%] (adrenergic α1 receptor): 74% | inhibition at 1 µM [3]: 22% | activation at 1 µM [4]: 0% | inhibition at 1 µM [4]: 48% | inhibition at 1 µM (dopaminergic D3 receptor): 90% | inhibition at 1 µM (muscarinic M3 receptor): -2% | inhibition at 1 µM [5]: 24% | σ [%] (sigma σ receptor): 23% | activation at 1 µM [6]: 0% | inhibition at 1 µM [6]: -4% | inhibition at 1 µM [7]: 98% | inhibition at 1 µM [8]: 99% | inhibition at 1 µM (dopaminergic D2 receptor): 91% | inhibition at 1 µM (adrenergic α2C receptor): 98% | inhibition at 1 µM [9]: 77%

O=S(=O)(NCCN1CCN(c2nsc3ccccc23)CC1)c1ccc2ccccc2c1 [Compound 10, N-(2-(4-(1,2-Benzothiazol-3-yl)piperazin-1-yl)ethyl)naphthalene-2-sulphonamide]
inhibition at 1 µM [1]: 99% | inhibition at 1 µM [2]: 50% | α1 [%] (adrenergic α1 receptor): 79% | inhibition at 1 µM [3]: 37% | activation at 1 µM [4]: 0% | inhibition at 1 µM [4]: 85% | inhibition at 1 µM (dopaminergic D3 receptor): 97% | inhibition at 1 µM (muscarinic M3 receptor): -2% | inhibition at 1 µM [5]: 54% | σ [%] (sigma σ receptor): 31% | activation at 1 µM [6]: 1% | inhibition at 1 µM [6]: -16% | inhibition at 1 µM [7]: 97% | inhibition at 1 µM [8]: 99% | inhibition at 1 µM (dopaminergic D2 receptor): 94% | inhibition at 1 µM (adrenergic α2C receptor): 98% | inhibition at 1 µM [9]: 81%

O=S(=O)(NCCN1CCC(c2noc3cc(F)ccc23)CC1)c1ccc2ccccc2c1 [Compound 24, N-[2-[4-(6-Fluoro-1,2-benzoxazol-3-yl)piperidin-1-yl]ethyl]naphthalene-2-sulphonamide]
inhibition at 1 µM [1]: 95% | inhibition at 1 µM [2]: 53% | α1 [%] (adrenergic α1 receptor): 97% | inhibition at 1 µM [3]: 76% | activation at 1 µM [4]: 0% | inhibition at 1 µM [4]: 99% | inhibition at 1 µM (dopaminergic D3 receptor): 98% | inhibition at 1 µM (muscarinic M3 receptor): 10% | inhibition at 1 µM [5]: 65% | σ [%] (sigma σ receptor): 80% | activation at 1 µM [6]: 2% | inhibition at 1 µM [6]: 9% | inhibition at 1 µM [7]: 80% | inhibition at 1 µM [8]: 100% | inhibition at 1 µM (dopaminergic D2 receptor): 99% | inhibition at 1 µM (adrenergic α2C receptor): 99% | inhibition at 1 µM [9]: 56%

O=S(=O)(NCCCN1CCC(c2noc3cc(F)ccc23)CC1)c1ccc2ccccc2c1 [Compound 21, N-[3-[4-(6-Fluoro-1,2-benzoxazol-3-yl)piperidin-1-yl]propyl]naphthalene-2-sulphonamide]
inhibition at 1 µM [1]: 99% | inhibition at 1 µM [2]: 46% | α1 [%] (adrenergic α1 receptor): 97% | inhibition at 1 µM [3]: 93% | activation at 1 µM [4]: 0% | inhibition at 1 µM [4]: 98% | inhibition at 1 µM (dopaminergic D3 receptor): 97% | inhibition at 1 µM (muscarinic M3 receptor): 2% | inhibition at 1 µM [5]: 87% | σ [%] (sigma σ receptor): 82% | activation at 1 µM [6]: -2% | inhibition at 1 µM [6]: 39% | inhibition at 1 µM [7]: 77% | inhibition at 1 µM [8]: 100% | inhibition at 1 µM (dopaminergic D2 receptor): 99% | inhibition at 1 µM (adrenergic α2C receptor): 98% | inhibition at 1 µM [9]: 90%

O=S(=O)(NCCN1CCC(c2noc3cc(F)ccc23)CC1)c1cccc2ccccc12 [Compound 23, N-[2-[4-(6-Fluoro-1,2-benzoxazol-3-yl)piperidin-1-yl]ethyl]naphthalene-1-sulphonamide]
inhibition at 1 µM [1]: 96% | inhibition at 1 µM [2]: 68% | α1 [%] (adrenergic α1 receptor): 97% | inhibition at 1 µM [3]: 69% | activation at 1 µM [4]: 0% | inhibition at 1 µM [4]: 88% | inhibition at 1 µM (dopaminergic D3 receptor): 93% | inhibition at 1 µM (muscarinic M3 receptor): -2% | inhibition at 1 µM [5]: 44% | σ [%] (sigma σ receptor): 82% | activation at 1 µM [6]: 0% | inhibition at 1 µM [6]: 1% | inhibition at 1 µM [7]: 85% | inhibition at 1 µM [8]: 100% | inhibition at 1 µM (dopaminergic D2 receptor): 97% | inhibition at 1 µM (adrenergic α2C receptor): 99% | inhibition at 1 µM [9]: 67%

O=S(=O)(NCCCN1CCC(c2noc3cc(F)ccc23)CC1)c1cccc2ccccc12 [Compound 20, N-[3-[4-(6-Fluoro-1,2-benzoxazol-3-yl)piperidin-1-yl]propyl]naphthalene-1-sulphonamide]
inhibition at 1 µM [1]: 101% | inhibition at 1 µM [2]: 85% | α1 [%] (adrenergic α1 receptor): 99% | inhibition at 1 µM [3]: 85% | activation at 1 µM [4]: -1% | inhibition at 1 µM [4]: 101% | inhibition at 1 µM (dopaminergic D3 receptor): 96% | inhibition at 1 µM (muscarinic M3 receptor): -9% | inhibition at 1 µM [5]: 75% | σ [%] (sigma σ receptor): 81% | activation at 1 µM [6]: -2% | inhibition at 1 µM [6]: 23% | inhibition at 1 µM [7]: 71% | inhibition at 1 µM [8]: 100% | inhibition at 1 µM (dopaminergic D2 receptor): 98% | inhibition at 1 µM (adrenergic α2C receptor): 99% | inhibition at 1 µM [9]: 78%
